PubChem BioAssay (NCI)
“And” between values parts separate entries of the source, which are not always exact repeats. Equal entries are not always repeated.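 Values below derive from 48-hour exposures of cells grown in 96-well plates, with endpoints linearly interpolated between the two concentrations bracketing the appropriate inhibition level. Abbreviation: GI50, concentration required for 50% inhibition of growth. TGI marks complete inhibition of growth.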

Legend:
Test in all cases: NCI tumour cell line growth inhibition, 48 h
MDA-N = tested on: MDA-N
XF 498 CNS = tested on: XF 498 CNS
SNB-78 CNS = tested on: SNB-78 CNS
DLD-1 colon = tested on: DLD-1 colon
M19-MEL melanoma = tested on: M19-MEL melanoma
LXFL 529 NSCLC = tested on: LXFL 529 NSCLC
RXF-631 renal = tested on: RXF-631 renal
HOP-18 NSCLC = tested on: HOP-18 NSCLC
DMS 273 small cell lung = tested on: DMS 273 small cell lung
SN12K1 renal = tested on: SN12K1 renal
P388 leukemia = tested on: P388 leukemia

Row | Compound | TGI (MDA-N) [µM] | TGI (XF 498 CNS) | TGI (SNB-78 CNS) | TGI (DLD-1 colon) | TGI (M19-MEL melanoma) [µM] | TGI (LXFL 529 NSCLC) [µM] | TGI (RXF-631 renal) [µM] | TGI (HOP-18 NSCLC) [µM] | TGI (DMS 273 small cell lung) [µM] | other results
1 | C(=N\Nc1nnc2c(n1)[nH]c1ccccc12)/c1cccnc1 | > 100 | – | – | – | – | – | – | – | – | –
2 | Cn1cnc([N+](=O)[O-])c1Sc1ccccn1 | – | > 100 µM | > 100 µM | > 100 µM | > 100 | > 100 | > 100 | 96.1 | > 100 | –
3 | O=[N+]([O-])c1cccc([N+](=O)[O-])c1S(=O)(=O)c1ccccc1 | 19.8 | – | – | – | – | – | – | – | – | –
4 | O=C1c2ccccc2C(=O)c2c(NCCCNCCO)ccc(NCCCNCCO)c21 | 20 | 27 µM | 30.8 µM | – | 18.6 | 16.1 | > 100 | 67.2 | – | –
5 | Cc1c[nH]c2c1C13CC1CN(C(=O)c1cc4cc(NC(=O)c5cc6ccccc6o5)ccc4[nH]1)C3=CC2=O (stereo not given) | – | – | 32.1 nM and 0.0318 µg/mL | 34.6 nM and 1.69 µg/mL | < 0.001 | – | 0.0139 | < 0.001 | – | GI50 (SNB-78 CNS): > 1.17 ng/mL; GI50 (SN12K1 renal): > 1.17 ng/mL; GI50 (DLD-1 colon): > 1.17 ng/mL; GI50 (P388 leukemia): > 1.17 ng/mL; GI50 (DMS 273 small cell lung): > 1.17 ng/mL
6 | COc1ccc2cccc(C(=O)c3ccc(C)c4c3CCC4)c2c1 | – | – | – | > 100 µM | > 100 | > 100 | 43.9 | > 100 | 70 | –
7 | CC#C[C@@]1(O)CCCC[C@@H]1O | – | > 100 µM | > 100 µM | – | > 100 | – | > 100 | > 100 | > 100 | –
8 | Cn1c2c([N+](=O)[O-])[se]nc2c(=O)n1-c1ccc([N+](=O)[O-])cc1 | – | 3.71 µM | 3.76 µM | 2.69 µM | – | 2.5 | 4.04 | 5.17 | 6.96 | –
9 | C/C1=C\[C@H](C)C[C@H](C)OC(=O)C[C@H](c2ccc(O)cc2)NC(=O)[C@@H](Cc2c(Br)[nH]c3ccccc23)N(C)C(=O)[C@H](C)NC(=O)[C@@H](C)C1 | 2.83 | 0.448 µM and 0.0585 µM | 0.795 µM and 0.163 µM | 2.39 µM | 2.02 | 3.41 | – | – | 0.83 | GI50 (XF 498 CNS): 0.0249 µM; GI50 (SNB-78 CNS): 0.0339 µM; GI50 (DLD-1 colon): 0.148 µM; GI50 (M19-MEL melanoma): 0.0414 µM; GI50 (LXFL 529 NSCLC): 0.0299 µM; GI50 (RXF-631 renal): 0.047 µM
10 | O=C(c1cc(O)ccc1O)c1ccccc1C(Cl)(Cl)Cl | – | 84.2 µM | > 100 µM | – | > 100 | > 100 | – | > 100 | > 100 | –
11 | CCOC(=O)C1N(S(=O)(=O)c2ccc(C)cc2)CCC12c1ccccc1N(C(C)=O)C2C(/C=C/C(=O)OC)=C/C(=O)OC (stereo not given) | – | > 100 µM | > 100 µM | > 100 µM | > 100 | > 100 | – | – | > 100 | –
12 | NCCCCCS(=O)(=O)O | – | – | > 100 µM | > 100 µM | > 100 | > 100 | > 100 | > 100 | > 100 | –
13 | CC[C@@]1(O)C(=O)NCc2c1cc1n(c2=O)Cc2cc3ccccc3nc2-1 | > 100 | – | – | – | – | – | – | – | – | GI50 (MDA-N): 12.4 µM
14 | O=c1[nH]cc(CS(=O)(=O)Cc2c[nH]c(=O)[nH]c2=O)c(=O)[nH]1 | > 100 | – | – | – | – | – | – | – | – | –
15 | S=c1nc(-c2nc(=S)[nH]c3c2CCCCCCCCCC3)c2c([nH]1)CCCCCCCCCC2 | > 100 | – | – | – | – | – | – | – | – | –
16 | O=NC1c2cccc3cccc(c23)C1N=O (stereo not given) | 25.4 | – | – | – | – | – | – | – | – | –
17 | Cc1ccc2nc3c(C)c(Cl)c(=O)cc-3sc2c1 | 32.1 | 32.5 µM | 96.9 µM | > 100 µM | 12.9 | > 100 | 91.3 | 75.8 | > 91.3 | –
18 | C/C(=C\c1ccc(Cl)cc1)C(C)(C)C(=O)O | > 100 | – | – | – | – | – | – | – | – | –
19 | COC(=O)C(=O)C1(CCC(C)=O)c2ccccc2-c2ccccc21 | – | – | – | > 100 µM | > 100 | > 100 | – | > 100 | > 100 | –
20 | N/C(=N\NS(=O)(=O)c1ccccc1)Oc1ccc(Cl)cc1 | – | > 100 µM | > 100 µM | > 100 µM | > 100 | > 100 | – | > 100 | > 100 | –
21 | CCOC(=O)C(C)(C)Oc1ccc2c(=O)cc(-c3ccccc3)oc2c1 | – | – | 71.8 µM | – | 41.5 | 35.7 | – | 54.3 | – | –
22 | C[Si](C)(C)/C=C/CCC(C=O)(CCCl)c1ccccc1 (stereo not given) | – | 36 µM | 78.9 µM | > 100 µM | > 100 | > 100 | – | 80 | 55.2 | –
23 | CCOC1OCCCC1Br (stereo not given) | > 100 | – | – | – | – | – | – | – | – | –
24 | Cc1cc(NS(=O)(=O)c2ccc(Nc3c4ccccc4nc4c(C(=O)Nc5ccc(S(=O)(=O)N=C(N)N)cc5)cccc34)cc2)no1 | – | > 100 µM | > 100 µM | > 100 µM | > 100 | > 100 | > 100 | > 100 | > 100 | –
